Measurements reported in patent US12077503B2, “Substituted cyclic amides and their use as herbicides” (FMC CORPORATION, priority 2015, dated 2024).

Assays:
Format in all cases: in vivo
[1] = tested on: ragweed (common ragweed, Ambrosia elatior); test: Test A preemergence
Summary of the method: (§1)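 Compounds were formulated in a non-phytotoxic solvent mixture with surfactant and applied as a preemergence directed soil spray after seeding, or sprayed postemergence over plants 2 to 10 cm tall at the one- to two-leaf stage. Evaluation after about 10 d compared treated with untreated controls, using a scale from 0 (no effect) to 100 (complete control).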

[2] = tested on: ryegrass, Italian (Italian ryegrass, Lolium multiflorum); test: Test A preemergence
Summary of the method: as §1

[3] = tested on: barnyardgrass (Echinochloa crus-galli); test: Test A preemergence
Summary of the method: as §1

[4] = tested on: giant foxtail (Setaria faberii); test: Test A preemergence
Summary of the method: as §1

Kochia (Kochia scoparia) [5] = test: Test A preemergence
Summary of the method: as §1

[6] = tested on: pigweed (Amaranthus retroflexus); test: Test A preemergence
[7] = tested on: sedge, umbrella (small-flower umbrella sedge, Cyperus difformis); test: Test B flooded paddy test; settings: Flood, 0 to 100 scale where 0 is no effect and 100 is complete control, 13 to 15 d
Summary of the method: (§2)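 Plants at 2-leaf stage flooded to 3 cm above soil, with compounds applied directly to paddy water and that depth maintained. Plants kept in greenhouse 13–15 d. Visual rating versus controls on a 0 (no effect) to 100 (complete control) scale.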

[8] = tested on: barnyardgrass (Echinochloa crus-galli); test: Test B flooded paddy test; settings: Flood, 0 to 100 scale where 0 is no effect and 100 is complete control, 13 to 15 d
Summary of the method: as §2

rice (Oryra sativa) = test: Test B flooded paddy test; settings: Flood, 0 to 100 scale where 0 is no effect and 100 is complete control, 13 to 15 d
Summary of the method: as §2

[9] = tested on: ducksalad (Heteranthera limosa); test: Test B flooded paddy test; settings: Flood, 0 to 100 scale where 0 is no effect and 100 is complete control, 13 to 15 d
Summary of the method: as §2

corn (Zea mays) = test: Test A postemergence
Summary of the method: as §1

[10] = tested on: ragweed (common ragweed, Ambrosia elatior); test: Test A postemergence
Summary of the method: as §1

[11] = tested on: ryegrass, Italian (Italian ryegrass, Lolium multiflorum); test: Test A postemergence
Summary of the method: as §1

[12] = tested on: blackgrass (Alopecurus myosuroides); test: Test A postemergence
Summary of the method: as §1

[13] = tested on: barnyardgrass (Echinochloa crus-galli); test: Test A postemergence
Summary of the method: as §1

[14] = tested on: giant foxtail (Setaria faberii); test: Test A postemergence
Summary of the method: as §1

[15] = tested on: wheat (Triticum aestivum); test: Test A postemergence
Summary of the method: as §1

Kochia (Kochia scoparia) [16] = test: Test A postemergence
Summary of the method: as §1

[17] = tested on: Galium (catchweed bedstraw, Galium aparine); test: Test A postemergence
Summary of the method: as §1

[18] = tested on: pigweed (Amaranthus retroflexus); test: Test A postemergence
Summary of the method: as §1

[19] = 125 g ai/ha, Preemergence, visual injury after approximately 10 d, 0 to 100 scale where 0 is no effect and 100 is complete control
[20] = 500 g ai/ha, preemergence, 0 to 100 scale, 0 = no effect, 100 = complete control
[21] = 125 g ai/ha, postemergence, visual rating after approx. 10 d, 0 to 100 scale (0 no effect, 100 complete control)
[22] = Postemergence, 500 g ai/ha, 0 to 100 scale where 0 is no effect and 100 is complete control
[23] = 500 g ai/ha, postemergence, visual injury, 0 to 100 scale (0 no effect, 100 complete control), approx. 10 d

Compound | Plant response rating, Ragweed [1, 19] | Plant response rating, Ragweed [1, 20] | Plant response rating, Ryegrass, Italian [2, 19] | Plant response rating, Ryegrass, Italian [2, 20] | Plant response rating, Barnyardgrass [3, 19] | Plant response rating, Barnyardgrass [3, 20] | Plant response rating, Foxtail, Giant [4, 19] | Plant response rating, Foxtail, Giant [4, 20] | Plant response rating, Kochia (Kochia (Kochia scoparia) [5]; [19]) | Plant response rating, Kochia (Kochia (Kochia scoparia) [5]; [20]) | Plant response rating, Pigweed [6, 19] | Plant response rating, Pigweed [6, 20] | Plant response rating, Corn (corn (Zea mays); [21]) | Plant response rating, Ragweed [10, 21] | Plant response rating, Ryegrass, Italian [11, 21] | Plant response rating, Blackgrass [12, 21] | Plant response rating, Barnyardgrass [13, 21] | Plant response rating, Foxtail, Giant [14, 21] | Plant response rating, Wheat [15, 21] | Plant response rating, Kochia (Kochia (Kochia scoparia) [16]; [21]) | other results
O=C1NCC(c2cc(F)c(F)cc2F)C1C(=O)Nc1ccc(F)c(F)c1F (stereo not drawn) [Compound 614] | 0 | 0 | 0 | 20 | 50 | 90 | 90 | 90 | 0 | 20 | 0 | 0 | 0 | 0 | 0 | 30 | 80 | 80 | 0 | 0 | Plant response rating, Sedge, Umbrella ([7]; 250 g ai/ha): 0; Plant response rating, Barnyardgrass ([8]; 250 g ai/ha): 65; Plant response rating, Rice (rice (Oryra sativa); 250 g ai/ha): 10; Plant response rating, Ducksalad ([9]; 250 g ai/ha): 100; Plant response rating, Corn (corn (Zea mays); [22]): 20; Plant response rating, Ragweed [10, 22]: 0; Plant response rating, Ryegrass, Italian [11, 22]: 20; Plant response rating, Blackgrass [12, 22]: 70; Plant response rating, Barnyardgrass [13, 22]: 90; Plant response rating, Foxtail, Giant [14, 22]: 90; Plant response rating, Wheat [15, 22]: 40; Plant response rating, Kochia (Kochia (Kochia scoparia) [16]; [22]): 50; Plant response rating, Galium [17, 21]: 30; Plant response rating, Galium [17, 22]: 40; Plant response rating, Pigweed [18, 21]: 0; Plant response rating, Pigweed [18, 22]: 30
CN1CC(c2ccc(C(F)(F)F)cc2)C(C(=O)Nc2ccc(F)cc2F)C1=O (stereo not drawn) [Compound 625] | 20 | 60 | 30 | 50 | 80 | 90 | 90 | 90 | 50 | 80 | 50 | 90 | 10 | 0 | 20 | 30 | 80 | 90 | 0 | 30 | Plant response rating, Sedge, Umbrella ([7]; 250 g ai/ha): 0; Plant response rating, Barnyardgrass ([8]; 250 g ai/ha): 40; Plant response rating, Rice (rice (Oryra sativa); 250 g ai/ha): 0; Plant response rating, Ducksalad ([9]; 250 g ai/ha): 100; Plant response rating, Corn (corn (Zea mays); [22]): 50; Plant response rating, Ragweed [10, 22]: 20; Plant response rating, Ryegrass, Italian [11, 22]: 30; Plant response rating, Blackgrass [12, 22]: 40; Plant response rating, Barnyardgrass [13, 22]: 90; Plant response rating, Foxtail, Giant [14, 22]: 90; Plant response rating, Wheat [15, 22]: 50; Plant response rating, Kochia (Kochia (Kochia scoparia) [16]; [22]): 50; Plant response rating, Galium [17, 21]: 30; Plant response rating, Galium [17, 22]: 60; Plant response rating, Pigweed [18, 21]: 20; Plant response rating, Pigweed [18, 22]: 50
NS(=O)(=O)c1ccccc1NC(=O)C1C(=O)NCC1c1cccc(C(F)(F)F)c1 (stereo not drawn) [Compound 634] | 0 | 0 | 0 | 0 | 20 | 70 | 60 | 80 | 0 | 0 | 0 | 30 | 0 | 0 | 0 | 0 | 40 | 50 | 0 | 0 | Plant response rating, Sedge, Umbrella ([7]; 500 g ai/ha): 0; Plant response rating, Barnyardgrass ([8]; 500 g ai/ha): 20; Plant response rating, Rice (rice (Oryra sativa); 500 g ai/ha): 15; Plant response rating, Ducksalad ([9]; 500 g ai/ha): 40; Plant response rating, Corn (corn (Zea mays); [22]): 0; Plant response rating, Ragweed [10, 23]: 0; Plant response rating, Ryegrass, Italian [11, 23]: 20; Plant response rating, Blackgrass [12, 22]: 0; Plant response rating, Barnyardgrass [13, 22]: 80; Plant response rating, Foxtail, Giant [14, 23]: 80; Plant response rating, Wheat [15, 23]: 0; Plant response rating, Kochia (Kochia (Kochia scoparia) [16]; [23]): 0; Plant response rating, Galium [17, 21]: 30; Plant response rating, Galium [17, 23]: 60; Plant response rating, Pigweed [18, 21]: 0; Plant response rating, Pigweed [18, 23]: 0
Cc1ccc(C2CNC(=O)C2C(=O)Nc2cccc(F)c2F)cc1C(F)(F)F (stereo not drawn) [Compound 642] | 0 | 50 | 50 | 80 | 90 | 90 | 90 | 90 | 40 | 60 | 50 | 60 | 50 | 0 | 40 | 20 | 70 | 20 | 0 | 20 | Plant response rating, Sedge, Umbrella ([7]; 250 g ai/ha): 0; Plant response rating, Barnyardgrass ([8]; 250 g ai/ha): 30; Plant response rating, Rice (rice (Oryra sativa); 250 g ai/ha): 30; Plant response rating, Ducksalad ([9]; 250 g ai/ha): 100; Plant response rating, Corn (corn (Zea mays); [23]): 70; Plant response rating, Ragweed [10, 23]: 40; Plant response rating, Ryegrass, Italian [11, 23]: 50; Plant response rating, Blackgrass [12, 23]: 40; Plant response rating, Barnyardgrass [13, 23]: 90; Plant response rating, Foxtail, Giant [14, 23]: 70; Plant response rating, Wheat [15, 23]: 20; Plant response rating, Kochia (Kochia (Kochia scoparia) [16]; [23]): 50; Plant response rating, Galium [17, 21]: 50; Plant response rating, Galium [17, 23]: 70; Plant response rating, Pigweed [18, 21]: 0; Plant response rating, Pigweed [18, 23]: 20
CN1CC(c2cc(F)cc(F)c2)C(C(=O)Nc2ccccc2C(F)(F)F)C1=O (stereo not drawn) [Compound 647] | 0 | 40 | 30 | 30 | 90 | 90 | 90 | 100 | 0 | 0 | 0 | 60 | 10 | 0 | 0 | 20 | 80 | 90 | 20 | 0 | Plant response rating, Sedge, Umbrella ([7]; 250 g ai/ha): 0; Plant response rating, Barnyardgrass ([8]; 250 g ai/ha): 75; Plant response rating, Rice (rice (Oryra sativa); 250 g ai/ha): 40; Plant response rating, Ducksalad ([9]; 250 g ai/ha): 90; Plant response rating, Corn (corn (Zea mays); [23]): 40; Plant response rating, Ragweed [10, 23]: 10; Plant response rating, Ryegrass, Italian [11, 23]: 0; Plant response rating, Blackgrass [12, 23]: 60; Plant response rating, Barnyardgrass [13, 23]: 90; Plant response rating, Foxtail, Giant [14, 23]: 90; Plant response rating, Wheat [15, 23]: 50; Plant response rating, Kochia (Kochia (Kochia scoparia) [16]; [23]): 20; Plant response rating, Galium [17, 21]: 20; Plant response rating, Galium [17, 23]: 50; Plant response rating, Pigweed [18, 21]: 0; Plant response rating, Pigweed [18, 23]: 0
